Measurements as given in article PMC7696666, “Epithelial Transfer of the Tyrosine Kinase Inhibitors Erlotinib, Gefitinib, Afatinib, Crizotinib, Sorafenib, Sunitinib, and Dasatinib: Implications for Clinical Resistance” (Cancers, 2020).

What was measured:
CaCo2 cells = assay: Intracellular accumulation in CaCo2 Transwell cells at the end of the transport period; assay type: in vitro ADME, human; settings: A->B incubation
Description: (§1) In order to get insight in the barrier role of the CaCo2 model system, we determined the intracellular accumulation of the TKISs at the end of the transport period, in normal monolayers of CaCo2 cells and in several other colon cancer cell lines. At the end of the transport period (both from the B->A and A->B incubations), cells were harvested and intracellular accumulation was determined.
These cells were exposed to 20 μM of a TKI and were harvested after 2 h for determination of TKI concentration with LC-MS-MS. Values are means ± SEM for the number of experiments described in Figure 3, Figure 4, and Figure 5 and from three separate experiments for the monolayer CaCo2 and WiDr cells. […] A->B, mass transport from A to B; B->A, mass transport from B to A. For AFA, CRI, and DAS, no data in WiDr cells were available. […] The bar heights were not read.
In a different set of experiments, the CaCo2 cells were cultured in 6-wells plates as monolayers until semiconfluency. Two other colon cancer cell lines, WiDr and HT29, were cultured similarly. These cells were exposed for 2 h to various TKIs at concentrations varying from 50 nM to 20 µM). […] At the end of the incubation, cells were harvested, as described earlier, and extracted for drug analysis using LC-MS-MS as described above.

[1] = set-up: method as in PMID 17429625; settings: ref [32]; cited from earlier work
[2] = CaCo2 Transwell transport (Papp, efflux ratio); assay type: in vitro ADME, human; settings: human
Description: (§2) The Transwell system was developed using the wild type Caco-2 cell line (passage 15–25) cultured in Dulbecco’s […] medium (DMEM) at standard conditions of 37 °C, 5% CO2, and 100% humidity as previously reported. […] To ensure a controlled growth environment the plate was covered with Breathe-Easier cell culture foil during the incubation period. The integrity of the developed monolayer was assessed by TEER before administration of compound solutions and after the final sampling stage.
(§3) The initial concentration of the drug was verified from a 20 µL sample taken immediately from the donor compartment after drug administration (t = 0).
(§4) The permeability coefficient (Papp) represents a measure for the efficiency of transport and was calculated with the following equation: Papp=ΔQ/Δt×V/C0⋅A where ∆Q/∆t = the rate of increase in drug concentration (accumulative mass transport) in the receiver compartment over time (µM/s), V = volume in the receiver compartment (mL), C0 = the initial concentration of drug in the donor compartment (µM), and A = the membrane surface area (cm^2).
(§5) To take into account the slightly nonlinear transfer characteristics of each compound, the rate of increase in drug concentration was determined for each time period and the Papp was then calculated. The average Papp was then determined with units of cm/s × 10^−6 or µm/s.
(§6) The efflux ratio was calculated according to the equation: Efflux ratio=PappB→A/PappA→B.
(§7) Statistical significance was determined using a simple Student’s t-test where a p value of <0.05 was considered significant.

CaCo2 monolayer = assay: CaCo2 Transwell transport (Papp, efflux ratio); assay type: in vitro ADME, human; settings: 20 µM
Description: as §2, §3, §4, §5, §6, §7

HT29 cells = assay: Intracellular accumulation in HT29 colon cancer cells; assay type: in vitro ADME; settings: after 24 h
Description: as §1
In a different set of experiments, the CaCo2 cells were cultured in 6-wells plates as monolayers until semiconfluency. Two other colon cancer cell lines, WiDr and HT29, were cultured similarly. […]

[3] = set-up: method as in PMID 30544701; settings: method not given, ref [45], cited from earlier work
WiDr cells = assay: Growth inhibition of WiDr cells; assay type: cell-based; settings: Homo sapiens, 72 hr exposure, read-out: Concentration leading to 50% growth inhibition

## Cc1nc(Nc2ncc(C(=O)Nc3c(C)cccc3Cl)s2)cc(N2CCN(CCO)CC2)n1 [Dasatinib, dasatinib]
CaCo2 cells
  Intracellular accumulation at the end of the transfer period (A->B): 1.1 pmol/μg protein
[1]
  Bioavailability (animal): 14–27 [32] (animal) %
[2]; Caco-2, 20 µM, read-out: Efflux Ratio (Papp B–A / Papp A–B)
  efflux ratio at 180 min, 20 µM: > 5
[2]; Caco-2, 20 µM, A–B, read-out: Papp (Apical Basolateral)
  Papp A→B at 180 min, 20 µM: 3.4 ± 3.4 ×10⁻⁶ cm/s
[2]; Caco-2, 20 µM, B–A, read-out: Papp (Basolateral Apical)
  Papp B→A at 180 min, 20 µM: 20.4 ± 13.5 ×10⁻⁶ cm/s
CaCo2 monolayer
  Efflux Ratio (Papp B–A / Papp A–B): 6.0
CaCo2 monolayer; A–B, 3 h
  Total amount transferred apical to basolateral in 3 h: 499.3 pmol
CaCo2 monolayer; B–A
  Papp basolateral to apical: 20.4 ×10⁻⁶ cm/s
CaCo2 monolayer; B–A, 3 h
  Total amount transferred basolateral to apical in 3 h: 13,889 pmol
CaCo2 monolayer; listed as dasatinib
  Efflux Ratio (Papp B–A / Papp A–B): > 6
HT29 cells
  Intracellular accumulation in HT29 cells: 0.14 pmol/μg protein
[3]
  Log P: 2.24
[3]; pH 5.5
  Log D (pH 5.5): −0.44
[3]; pH 7.5
  Log D (pH 7.5): 2.17
WiDr cells
  IC50: 60 nM
